Source: US20220370381A1 (priority 2016, published 2022)

Assays:
[1] = test system: homozygous scn1Lab−/− mutant zebrafish; assay: Forebrain local field potential (LFP) recordings in homozygous scn1Lab−/− mutant zebrafish larvae; assay type: in vivo; conditions: 25, 50 or 100 μM for 24 h; p<0.05 vs. VHC
Method: ZF larvae were treated on 6 dpf with vehicle (VHC, 0.1% dimethyl sulfoxide, DMSO, or FA (25, 50 or 100 μM) for 24 h. Thereafter, the locomotor activity (behavior) was monitored by an automated tracking device. Subsequently, forebrain local field potentials and forebrain activity (LFPs, brain activity) were measured to confirm anticonvulsant effects of FA treatment, if indicated by the behavioral assays.

Sigma 1 = Sigma 1 (Cavia porcellus, UniProt Q60492); assay: Sigma-1 receptor tissue bioassay, guinea pig vas deferens, agonist activity (twitch contraction); set-up: Segments of guinea pig vas deferens were suspended in 20-ml organ baths; from tissue; host or cells: guinea pig vas deferens; conditions: field-stimulated guinea pig vas deferens, compound alone
Sequence of Sigma 1 (Q60492 whole entry): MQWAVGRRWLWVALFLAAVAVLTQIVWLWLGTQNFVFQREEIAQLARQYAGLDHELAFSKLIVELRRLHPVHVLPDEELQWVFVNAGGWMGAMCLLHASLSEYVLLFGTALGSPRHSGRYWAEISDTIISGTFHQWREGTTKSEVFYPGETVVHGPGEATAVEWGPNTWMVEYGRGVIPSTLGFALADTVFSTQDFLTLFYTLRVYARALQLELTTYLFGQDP

[2] = target: T1, human β-2 adrenergic receptor (Homo sapiens, UniProt P07550); assay: Competitive radioligand binding assay, β2-adrenergic; conditions: test article 1×10^−6 and 1×10^−5 mol/L; human recombinant
T1 sequence (P07550 whole entry): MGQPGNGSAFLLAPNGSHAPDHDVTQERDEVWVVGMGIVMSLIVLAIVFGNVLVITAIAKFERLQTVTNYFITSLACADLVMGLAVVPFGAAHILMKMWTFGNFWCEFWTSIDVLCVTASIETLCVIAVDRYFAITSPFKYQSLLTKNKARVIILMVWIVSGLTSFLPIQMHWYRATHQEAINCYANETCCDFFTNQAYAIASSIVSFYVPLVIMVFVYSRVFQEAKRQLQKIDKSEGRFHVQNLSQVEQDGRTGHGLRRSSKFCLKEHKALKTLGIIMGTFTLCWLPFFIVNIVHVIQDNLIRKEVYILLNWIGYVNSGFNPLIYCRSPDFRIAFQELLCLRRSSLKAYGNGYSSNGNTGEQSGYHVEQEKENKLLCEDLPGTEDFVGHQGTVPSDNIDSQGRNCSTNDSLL

[3] = target: T1, human β-2 adrenergic receptor; assay: β-2 adrenergic receptor antagonist assay, agonist-induced cAMP production (HTRF); assay type: cell-based; set-up: expressed in transfected cells; host or cells: HEK-293; conditions: inhibition of isoproterenol-induced cAMP production
Method: Transfected HEK-293 cells expressing human β-1 adrenergic receptor, human β-2 adrenergic receptor, and human β3 adrenergic receptor, respectively, were prepared using cloned human cDNA. See H FRIELLE, T., COLLINS, S., DANIEL, K. W., CARON, M. G., LEFKOWITZ, R. J., KOBILKA, B. K. (1987), Cloning of the cDNA for the human beta1-adrenergic receptor, Proc. Natl. Acad. Sci. U.S.A., 84,7920, and BAKER, J. G. (2005) The selectivity of Beta-adrenoreceptor antagonists at the human Beta1, Beta2 and Beta3 adrenoreceptor, Brit.
Transfected cells were suspended in HBSS buffer (Invitrogen) complemented with 20 mM HEPES (pH 7.4) and 500 μM IBMX. […] The cells were then distributed in 96 well microplates (see FIG. 15 for plating densities).
After plating, the cells were induced by adding reference agonist. See FIG. 15 for reference agonists and concentrations used for each assay. […] The cells were then incubated 30 minutes at room temperature.
Subsequently, the cells were lysed and a fluorescence acceptor (D2-labeled cAMP) and a fluorescence donor (anti-cAMP antibody labeled with europium cryptate) were added to the wells.
Standard reference antagonists were tested in each experiment at several concentrations to generate a concentration-response curve from which its IC50 value is calculated.
EC50 values (concentration producing a half-maximal response) and IC50 values (concentration causing a half-maximal inhibition of the control agonist response) were determined by non-linear regression analysis of the concentration-response curves generated with mean replicate values using Hill equation curve fitting: […]
For the antagonists, the apparent dissociation constants (KB) were calculated using the modified Cheng Prusoff equation:
KB=IC50/[1+(A/EC50A)], where

SMILES: CCNC(C)Cc1cccc(C(F)(F)F)c1 (racemic) [fenfluramine, (RS)—N-ethyl-1-[3-(trifluoromethyl)phenyl]propan-2-amine]
- epileptiform brain activity (LFP recordings) [1]: anti-epileptiform activity was consistently confirmed
- effect on twitch contraction amplitude (Sigma 1): did not significantly affect
- inhibition of receptor binding (tracer) [2]: significantly inhibit
- antagonist activity at the beta-2 adrenergic receptor [3]: some antagonist activity
